One assay deals with T1, alpha 2C adrenoceptors (Homo sapiens, UniProt P18825).
T1 construct: host or cells: CHO cells
T1 sequence (P18825 1-462): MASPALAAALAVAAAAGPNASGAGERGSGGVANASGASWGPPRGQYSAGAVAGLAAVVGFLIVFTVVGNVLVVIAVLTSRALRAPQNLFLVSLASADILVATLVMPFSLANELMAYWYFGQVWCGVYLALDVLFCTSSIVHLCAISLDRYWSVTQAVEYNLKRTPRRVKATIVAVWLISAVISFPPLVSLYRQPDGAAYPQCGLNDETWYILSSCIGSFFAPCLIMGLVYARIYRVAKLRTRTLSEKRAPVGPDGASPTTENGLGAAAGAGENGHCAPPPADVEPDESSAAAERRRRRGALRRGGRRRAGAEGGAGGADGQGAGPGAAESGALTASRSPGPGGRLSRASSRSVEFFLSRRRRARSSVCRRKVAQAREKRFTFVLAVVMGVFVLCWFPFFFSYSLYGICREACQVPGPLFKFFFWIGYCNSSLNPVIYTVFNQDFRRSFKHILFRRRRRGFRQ
Nature of the assay: Displacement of [3H]RX 821002 binding in CHO cells (Eurofins). As to conditions: 2 nM [3H]RX 821002, 60 min, 22° C., human recombinant, read-out: inhibition of binding of specific ligand. As for the experimental part:
(§1) Method. The displacement by compound (II-1) of binding of selective ligands of alpha adrenergic receptors 1D and 2C (0.2 nM [^3H]Prazosin and 2 nM [^3H]RX 821002, respectively) was evaluated for 60 min at 22° C. in CHO cells expressing the human recombinant adrenoceptors (Eurofins).

In the next assay the target is T2, alpha 1D adrenoceptors (Homo sapiens, UniProt P25100).
T2 construct: host or cells: CHO cells
T2 sequence (P25100 1-572): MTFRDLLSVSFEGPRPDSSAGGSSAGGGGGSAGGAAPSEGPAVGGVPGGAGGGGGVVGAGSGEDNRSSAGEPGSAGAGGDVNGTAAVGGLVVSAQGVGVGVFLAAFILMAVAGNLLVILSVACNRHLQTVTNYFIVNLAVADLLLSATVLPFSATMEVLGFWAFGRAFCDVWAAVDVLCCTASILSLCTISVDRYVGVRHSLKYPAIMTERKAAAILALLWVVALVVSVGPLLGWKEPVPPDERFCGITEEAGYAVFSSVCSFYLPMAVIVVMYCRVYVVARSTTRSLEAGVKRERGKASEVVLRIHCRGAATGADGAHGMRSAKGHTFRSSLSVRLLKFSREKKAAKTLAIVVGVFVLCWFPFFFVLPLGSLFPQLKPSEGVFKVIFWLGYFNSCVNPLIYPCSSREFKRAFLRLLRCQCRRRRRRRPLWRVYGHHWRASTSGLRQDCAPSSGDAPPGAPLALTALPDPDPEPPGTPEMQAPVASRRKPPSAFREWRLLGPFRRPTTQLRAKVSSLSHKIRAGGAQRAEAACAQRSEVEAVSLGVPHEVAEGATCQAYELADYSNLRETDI
Nature of the assay: Displacement of [3H]Prazosin binding in CHO cells (Eurofins). The following applies: 0.2 nM [3H]Prazosin, 60 min, 22° C., human recombinant, read-out: inhibition of binding of specific ligand. As for the experimental part: as §1

The next assay addresses T3, human OCT2 (Homo sapiens, UniProt O15244).
T3 construct: expressed in transfected cells; host or cells: COS cells
T3 sequence (O15244 1-555): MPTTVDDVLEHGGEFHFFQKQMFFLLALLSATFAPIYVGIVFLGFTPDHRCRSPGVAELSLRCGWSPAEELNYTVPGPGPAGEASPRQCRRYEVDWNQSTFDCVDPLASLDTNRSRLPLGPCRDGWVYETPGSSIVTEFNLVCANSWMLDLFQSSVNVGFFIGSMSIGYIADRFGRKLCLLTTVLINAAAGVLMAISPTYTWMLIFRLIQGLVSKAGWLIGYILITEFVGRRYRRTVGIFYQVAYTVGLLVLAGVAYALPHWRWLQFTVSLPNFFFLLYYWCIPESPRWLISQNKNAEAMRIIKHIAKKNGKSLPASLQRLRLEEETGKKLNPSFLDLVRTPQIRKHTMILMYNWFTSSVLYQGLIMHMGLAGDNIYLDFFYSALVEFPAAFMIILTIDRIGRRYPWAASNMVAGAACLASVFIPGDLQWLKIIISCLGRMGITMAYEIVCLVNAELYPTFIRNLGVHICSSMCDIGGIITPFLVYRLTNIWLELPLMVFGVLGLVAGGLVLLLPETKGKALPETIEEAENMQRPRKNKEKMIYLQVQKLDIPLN
Nature of the assay: OCT inhibition in transfected cells ([3H]ASP+ uptake). It is filed as cell-based. The source says:
Method. […] Tested concentrations: 1.10^−9; 3.10^−9; 1.10^−8; 3.10^−8; 1.10^−7; 3.10^−7; 1.10^−6; 3.10^−6 mol·L^−1.

Each structure is given as a SMILES string. pIC50: −log10 of the molar value.

`COc1ccc2c(c1)C=C/C(=C/c1cc[n+](C(C)C)c3ccccc13)N2C(C)C.[I-]` [II-1, (Z)-1-isopropyl-4-((1-isopropyl-6-methoxyquinolin-2(1H)-ylidene)methyl)quinolin-1-ium iodide]: the inhibition at 1 µM came out at 66% on alpha 2C adrenoceptors and 69% on alpha 1D adrenoceptors. For the same compound, the “IC50 less than that of D24 on human and rodent OCTs” value against human OCT2 (hOCT2 IC50 versus literature D24 value) is listed as 3 to 4 fold. Besides, the pIC50 at human OCT2 (uptake of [3H]ASP+ (5 μM) in COS cells transfected with human OCT2, 20 min, 37° C.) is 7.09.
